One data set has as its system PANC02 cells. In words: MTT cytotoxicity assay in PANC02 cells. It counts as cell-based, murine. Conditions: 96 h. The procedure: MTT assay. The combinational effect of PTX and GEM as well as the cytotoxicity of blank and drug-loaded micelles were investigated by MTT assay using murine pancreatic carcinoma cell lines PANC02 and H7 cells. Cells were seeded into a 96-well plate at a density of 5000 cells/well and incubated in 100 μL of Dulbecco's Modified Eagle medium (DMEM) containing 10% FBS for 24 h. Cells were treated with various concentrations of free PTX, GEM or micelles solution for 96 h. Then, 20 μL of MTT solution (5 mg/mL) were added to each well and the cells were incubated for another 4 h. After removing the medium, 100 μL of DMSO were added into each well to dissolve MTT formazan crystals. The optical density was measured using a microplate reader and the cell viability was calculated with untreated cells as a control.
Background: Tetrazolium assays rely on reduction of a dye to a coloured formazan, in cell work by metabolically active cells.

For a further data set, the system named is CDA. In words: CDA expression in PANC02 cells by western blot. It counts as cell-based, murine. Conditions: vs control group. From the text: As described above, CDA is overexpressed in pancreatic cancer, which mediates the metabolism of cytidine analogue drugs, such as gemcitabine of GEM, leading to the resistance to treatment with these drugs. Thus, reducing the CDA expression provides a new therapeutic window for pancreatic cancer. We examined the CDA expression in PANC02 cells treated with various formulations by western blot.
Background: Immunoblotting shows a protein as a band on a membrane.

As to `Nc1ccn([C@@H]2O[C@H](CO)[C@@H](O)C2(F)F)c(=O)n1` [free GEM, gemcitabine], the “Cytotoxicity (cell killing effect, in words)” value with PANC02 cells is listed as “concentration-dependent cell killing effect”. Moreover, in the data set on CDA, the CDA expression entry is “not altered”.

For the origin of these results see patent publication US12083185B2, “Small polymeric carriers for delivery of agents” (University of Pittsburgh—Of the Commonwealth System of …, priority 2018, dated 2024).
